Laboratory results from patent publication US11412737B2, “Mixtures of beflubutamid or optically enriched forms thereof with a second herbicide” (FMC Corporation, priority 2016, dated 2022).
“And” between values parts separate entries of the source, which are not always exact repeats. Identical values can stand only once.

Tests used:
[1] = tested on: Common lambsquarters (CHEAL); assay: pre-emergence test, weed control; assay type: in vivo, Chenopodium album; conditions: pre-emergent, 28 DAT
Method: (§1) Test compositions containing the test compounds were diluted with water to provide the appropriate test rate concentrations.
(§2) For pre-emergence testing, four disposable fiber flats (6 inch by 10 inch) for each rate of application of each herbicide solution were filled with top soil, to which seeds of each species were planted in furrows made by a template pressed on the top of the soil. The furrows were covered with soil after planting the seed and were watered well before application of the test compounds.
(§3) Fiber flats designated for treatment were placed in a spray chamber having a static platform and a movable sprayer and the height of the spray nozzle was 10.5 inches above the soil level. Once the sprayer was calibrated using water for spray volume of 30 gallons per acre, flats were sprayed with sprayer at a speed to receive a coverage equivalent of 30 gallons per acre. The application rates are those shown in the Tables below for the individual herbicidal solutions and the herbicide compositions of this invention. The pre-emergence flats were immediately placed in the greenhouse and watered lightly after treatment. Thereafter they were regularly watered and fertilized for the duration of the test.
(§4) The control of weeds was evaluated in each experimental test at 21 for wheat and 28 days after treatment (DAT) for all species. Data were analyzed using Minitab software at 95% confidence interval. The results, shown as an average of the replications, were compared with results observed in untreated control flats in the same tests. Percent control was determined by a method similar to the 0 to 100 rating system disclosed in “Research Methods in Weed Science,” 2nd ed., B. Truelove, Ed.; Southern Weed Science Society; Auburn University, Auburn, Ala., 1977. The rating system is as follows in Table 1.

Rice flatsedge (CYPIR) = assay: pre-emergence test, weed control; assay type: in vivo; conditions: pre-emergent, 28 DAT; rate g ai/ha by row: r5 94, r6 125, r7 250, r8 3.28, r9 6.56, r10 13.1, r11 94+3.28, r12 94+6.56, r13 94+13.1, r14 125+3.28, r15 125+6.56, r16 125+13.1
Method: as §1, §2, §3, §4

Kochia (KCHSC) = assay: pre-emergence test, weed control; assay type: in vivo; conditions: pre-emergent, 28 DAT; rate g ai/ha by row: r5 94, r6 125, r7 250, r8 3.28, r9 6.56, r10 13.1, r11 94+3.28, r12 94+6.56, r13 94+13.1, r14 125+3.28, r15 125+6.56, r16 125+13.1
Method: as §1, §2, §3, §4

Common chickweed (STEME) [2] = assay: pre-emergence test, weed control; assay type: in vivo, Stellaria media; conditions: pre-emergent, 28 DAT; BFL at 187.5 g, PYX at 90 g, combination of both
Method: as §1, §2
Fiber flats designated for treatment were placed in a spray chamber having a static platform and a movable sprayer and the height of the spray nozzle was 10.5 inches above the soil level. Once the sprayer was calibrated using water for spray volume of 30 gallons per acre, flats were sprayed with sprayer at a speed to receive a coverage equivalent of 30 gallons per acre. […]
The control of weeds was evaluated in each experimental test at 21 for wheat and 28 days after treatment (DAT) for all species. Data were analyzed using Minitab software at 95% confidence interval. […] Percent control was determined by a method similar to the 0 to 100 rating system disclosed in “Research Methods in Weed Science,” 2nd ed., B. Truelove, Ed.; Southern Weed Science Society; Auburn University, Auburn, Ala., 1977. […]

Green foxtail (SETVI) [3] = assay: pre-emergence test, weed control; assay type: in vivo, Setaria viridis; conditions: pre-emergent, 28 DAT
Method: as §1, §2, §3, §4

Yellow foxtail (SETLU) = assay: pre-emergence test, weed control; assay type: in vivo; conditions: pre-emergent, 28 DAT
Method: as §1, §2, §3, §4

Hemp sesbania (SEHE8) = assay: pre-emergence test, weed control; assay type: in vivo; conditions: pre-emergent, 28 DAT; BFL at 187.5 g, PYX at 90 g, combination of both
Method: as §1, §2, §3, §4

Blackgrass (ALOMY) = assay: pre-emergence test, weed control; assay type: in vivo; conditions: pre-emergent, 28 DAT
Method: as §1, §2, §3, §4

Cheat grass (BROSE) = assay: pre-emergence test, weed control; assay type: in vivo; conditions: pre-emergent, 28 DAT, (+)-BFL >95% e.e.; rate g ai/ha by row: r6 62.5, r7 125, r8 62.5, r9 125, r10 222, r11 445, r12 22.5, r13 45, r14 62.5+62.5, r15 125+62.5, r16 62.5+125, r17 125+125, r18 62.5+222, r19 125+222, r20 62.5+445, r21 125+445, r22 62.5+22.5, r23 125+22.5, r24 62.5+45, r25 125+45
Method: as §1, §2, §3, §4

Palmer amaranth (AMAPA) = assay: pre-emergence test, weed control; assay type: in vivo, Amaranthus palmeri; conditions: pre-emergent, 28 DAT, (−)-BFL >95% e.e.; rate g ai/ha by row: r6 62, r7 125, r8 125, r9 250, r10 445, r11 890, r12 45, r13 90, r14 62+125, r15 125+125, r16 62+250, r17 125+250, r18 62+445, r19 125+445, r20 62+890, r21 125+890, r22 62+45, r23 125+45, r24 62+90, r25 125+90
Method: as §1, §2, §3, §4

Wild oat (AVEFA) [4] = assay: post-emergence test, weed control; assay type: in vivo, Avena fatua; conditions: post-emergent, 28 DAT; BFL at 187.5 g, PYX at 90 g, combination of both
Method: as §1
(§5) For post-emergence testing, seeds of each species for each rate of application of each herbicide solution were planted in 7.5 cm×7.5 cm plastic pots filled with potting soil. The seeds were germinated and the resulting plants were allowed to grow in a greenhouse until they reached a growth stage, such as height, suitable for testing. Treatments were applied using compressed air in a track spray chamber at 30 gallons/acre (280 L/ha) using a TeeJet 8001E nozzle at 40 psi (2.76 bars). Pots of post-emergent treated plants were returned to the greenhouse and not watered for 24 hours after treatment. Thereafter they were regularly watered and fertilized for the duration of the test.
as §4

Wild oat (AVEFA) [5] = assay: pre-emergence test, weed control; assay type: in vivo, Avena fatua; conditions: pre-emergent, 28 DAT
Method: as §1, §2, §3, §4

Jimsonweed (DATST) = assay: pre-emergence test, weed control; assay type: in vivo, Datura stramonium; conditions: pre-emergent, 28 DAT; BFL at 187.5 g, PYX at 90 g, combination of both
Method: as §1, §2, §3, §4

Green foxtail (SETVI) [6] = assay: post-emergence test, weed control; assay type: in vivo, Setaria viridis; conditions: post-emergent, 28 DAT; BFL at 187.5 g, PYX at 90 g, combination of both
Method: as §1, §5, §4

Redrice (ORYSA) = assay: post-emergence test, weed control; assay type: in vivo; conditions: post-emergent, 28 DAT; BFL at 187.5 g, PYX at 90 g, combination of both
Method: as §1, §5, §4

Common chickweed (STEME) [7] = assay: post-emergence test, weed control; assay type: in vivo, Stellaria media; conditions: post-emergent, 28 DAT; BFL at 187.5 g, PYX at 45 g, combination of both
Method: as §1
as §5, with “Treatments were applied using compressed air in a track spray chamber at 30 gallons/acre (280 L/ha) using a TeeJet 8001E nozzle at 40 psi (2.76 bars).” left out
The control of weeds was evaluated in each experimental test at 21 for wheat and 28 days after treatment (DAT) for all species. […] The rating system is as follows in Table 1.

[8] = (+)-BFL >95% e.e., rate g ai/ha by row: r6 62.5, r7 125, r8 62.5, r9 125, r10 222, r11 445, r12 22.5, r13 45, r14 62.5+62.5, r15 125+62.5, r16 62.5+125, r17 125+125, r18 62.5+222, r19 125+222, r20 62.5+445, r21 125+445, r22 62.5+22.5, r23 125+22.5, r24 62.5+45, r25 125+45
[9] = (+)-BFL >95% e.e., rate g ai/ha by row: r6 62.5, r7 125, r8 62.5, r9 125, r10 222, r11 445, r12 22.5, r13 45, r14 62.5+62.5, r15 125+62.5, r16 62.5+125, r17 125+125, r18 62.5+222, r19 125+222, r20 62.5+445, r21 125+445, r22 62.5+22.5, r23 125+22.5, r24 62.5+45, r25 125+45, 22.5 g ai/ha
[10] = (+)-BFL >95% e.e., rate g ai/ha by row: r6 62.5, r7 125, r8 62.5, r9 125, r10 222, r11 445, r12 22.5, r13 45, r14 62.5+62.5, r15 125+62.5, r16 62.5+125, r17 125+125, r18 62.5+222, r19 125+222, r20 62.5+445, r21 125+445, r22 62.5+22.5, r23 125+22.5, r24 62.5+45, r25 125+45, 45 g ai/ha
[11] = (−)-BFL >95% e.e., rate g ai/ha by row: r6 62, r7 125, r8 125, r9 250, r10 445, r11 890, r12 45, r13 90, r14 62+125, r15 125+125, r16 62+250, r17 125+250, r18 62+445, r19 125+445, r20 62+890, r21 125+890, r22 62+45, r23 125+45, r24 62+90, r25 125+90
[12] = (−)-BFL >95% e.e., rate g ai/ha by row: r6 62, r7 125, r8 125, r9 250, r10 445, r11 890, r12 45, r13 90, r14 62+125, r15 125+125, r16 62+250, r17 125+250, r18 62+445, r19 125+445, r20 62+890, r21 125+890, r22 62+45, r23 125+45, r24 62+90, r25 125+90, 45 g ai/ha
[13] = (−)-BFL >95% e.e., rate g ai/ha by row: r6 62, r7 125, r8 125, r9 250, r10 445, r11 890, r12 45, r13 90, r14 62+125, r15 125+125, r16 62+250, r17 125+250, r18 62+445, r19 125+445, r20 62+890, r21 125+890, r22 62+45, r23 125+45, r24 62+90, r25 125+90, 90 g ai/ha

## COC(=O)c1c(Cl)nn(C)c1S(=O)(=O)NC(=O)Nc1nc(OC)cc(OC)n1 [Halosulfuron-methyl]
[1]; rate g ai/ha by row: r5 94, r6 125, r7 250, r8 3.28, r9 6.56, r10 13.1, r11 94+3.28, r12 94+6.56, r13 94+13.1, r14 125+3.28, r15 125+6.56, r16 125+13.1
  percentage of weed control, Common lambsquarters CHEAL: 86% and 56% and 90%
Rice flatsedge (CYPIR)
  percentage of weed control, Rice flatsedge CYPIR: 95% and 71% and 99%
Kochia (KCHSC)
  percentage of weed control, Kochia KCHSC: 66% and 38% and 40%

## Cn1nc(C(F)(F)F)c(CS(=O)(=O)C2=NOC(C)(C)C2)c1OC(F)F [PYX, Pyroxasulfone]
Common chickweed (STEME) [2]
  control of common chickweed: 67%
[1]; [8]
  percentage of weed control, CHEAL: 100%
Green foxtail (SETVI) [3]; [9]
  percentage of weed control, SETVI: 97%
Green foxtail (SETVI) [3]; [10]
  percentage of weed control, SETVI: 99%
Green foxtail (SETVI) [3]; [11]
  percentage of weed control, SETVI: 99%
Yellow foxtail (SETLU); [9]
  percentage of weed control, SETLU: 99%
Yellow foxtail (SETLU); [10]
  percentage of weed control, SETLU: 100%
Yellow foxtail (SETLU); [11]
  percentage of weed control, SETLU: 100%
Hemp sesbania (SEHE8)
  control of hemp sesbania: 67%
Blackgrass (ALOMY); [8]
  percentage of weed control, ALOMY: 100%
Blackgrass (ALOMY); [12]
  percentage of weed control, ALOMY: 100%
Blackgrass (ALOMY); [13]
  percentage of weed control, ALOMY: 99%
Cheat grass (BROSE)
  percentage of weed control, BROSE: 100%
Palmer amaranth (AMAPA)
  percentage of weed control, AMAPA: 100%
Wild oat (AVEFA) [4]
  control of wild oats: 48%
Wild oat (AVEFA) [5]; [9]
  percentage of weed control, AVEFA: 98%
Wild oat (AVEFA) [5]; [10]
  percentage of weed control, AVEFA: 96%
Wild oat (AVEFA) [5]; [12]
  percentage of weed control, AVEFA: 100%
Wild oat (AVEFA) [5]; [13]
  percentage of weed control, AVEFA: 99%
Jimsonweed (DATST)
  control of jimsonweed: 72%
Green foxtail (SETVI) [6]
  control of green foxtail: 66%
Redrice (ORYSA)
  control of red rice: 39%
Common chickweed (STEME) [7]
  control of common chickweed: 22%
